{
  "source": "paper PMC5108082",
  "about": "“Pharmacokinetics, toxicity, and cytochrome P450 modulatory activity of plumbagin” (BMC Pharmacology & Toxicology, 2016)",
  "key": {"[1]": {"settings": "rat, in vivo, cited from earlier work"}, "[2]": {"tested_on": "CYP2C19", "settings": "cited from earlier work"}, "[3]": {"tested_on": "mice", "settings": "cited from earlier work"}, "[4]": {"tested_on": "Wistar rats", "assay": "acute toxicity test, single oral dose", "format": "in vivo, rat", "protocol": "Plumbagin was dissolved with 20 % Tween-80 to obtain the desired concentrations. Wistar rats were fasting 2 h before administration of a single oral dose of the plumbagin. Animals were divided into eight groups of six (3 males and 3 females for each group). For the acute toxicity test, rats in each group were fed with plumbagin at a single oral dose of 500, 250, or 150 mg/kg body weight (1 mL); control group received a single oral dose of 20 % Tween-80 (1 mL). For the subacute toxicity test, rats in each group were fed with plumbagin at a daily dose of 100, 50, or 25 mg/kg body weight (1 mL) for 28 days; control group received a daily oral dose of 20 % Tween-80 for 28 days (1 mL).\nGeneral behavioral changes of each rat was observed continuously for 1 h after each dose, intermittently every 4 h, and thereafter over a period of 24 h. […] At the end of the observation period, all animals were sacrificed under ether anesthesia (isoflurane) and vital organs (liver, lung, kidney, heart, and spleen) were removed from all animals for gross and histopathological examination. Blood sample was collected from each rat through cardiac puncture for analysis of plasma chemistry (heparin as an anticoagulant) and blood hematology (EDTA as an anticoagulant)."}, "[5]": {"tested_on": "K1 chloroquine-resistant P. falciparum", "settings": "K1 clone; read-out: median IC50; cited from earlier work"}, "[6]": {"settings": "single oral dose 150 mg/kg body weight, 14 days observation"}},
  "data": [
    {"smiles": "CC1=CC(=O)c2c(O)cccc2C1=O", "note": "[plumbagin, 5-hydroxy-2-methyl-1,4-naphthoquinone]", "values": [
      {"measurement": "oral bioavailability", "setting": "[1]; po", "result": 39, "unit": "%"},
      {"measurement": "elimination half-life (t1/2), mean", "setting": "[1]", "result": 17, "unit": "h"},
      {"measurement": "mean residence time (MRT), mean", "setting": "[1]", "result": 22, "unit": "h"},
      {"measurement": "time to reach maximum blood concentration (tmax)", "setting": "[1]", "result": 2.5, "unit": "h"},
      {"measurement": "IC50", "setting": "[2]", "result": 780, "unit": "nM"},
      {"measurement": "maximal tolerated dose, subacute toxicity testing", "setting": "[3]; mice, for 14 days, ref our previous study", "result": 25, "unit": "mg/kg body weight"},
      {"measurement": "types of toxicity reported", "setting": "[3]; mice", "result": "diarrhea, skin rashes, leukocytosis, increased serum phosphatase levels"},
      {"measurement": "maximal tolerated dose, acute toxicity testing", "setting": "[3]; mice, ref our previous study", "result": 100, "unit": "mg/kg body weight"},
      {"measurement": "hepatotoxicity", "setting": "[3]; mouse, in vivo", "result": "marked increased plasma ALT and AST levels"},
      {"measurement": "gender-specific toxicity", "setting": "[4]; all dose levels", "result": "No gender-specific toxicity was observed"},
      {"measurement": "histopathological examination (liver, kidney, heart, spleen, lung)", "setting": "[4]; all dose levels (150, 250, 500 mg/kg)", "result": "no significant change in size and morphology"},
      {"measurement": "signs of toxicity, water and food consumption, body weight", "setting": "[4]; [6]", "result": "no visible sign of toxicity"},
      {"measurement": "survival", "setting": "[4]; [6]", "result": "All rats survived"},
      {"measurement": "animals died", "setting": "[4]; single oral dose 250 mg/kg body weight", "result": "3/6"},
      {"measurement": "animals died", "setting": "[4]; single oral dose 500 mg/kg body weight", "result": "6/6"},
      {"measurement": "signs of toxicity", "setting": "[4]; single oral dose 250 and 500 mg/kg body weight", "result": "toxic signs and symptoms including anxiety, salivation, exhibited chewing, and agitation"},
      {"measurement": "IC50", "setting": "[5]", "result": 370, "unit": "nM"}
    ]}
  ]
}
